Test results published in patent US11286268B1, “EIF4E-inhibiting compounds and methods” (EFFECTOR THERAPEUTICS, INC., priority 2019, dated 2022).
Where two headings read alike, the source gives them in different places.

Molecular target: recombinant eIF4E (Homo sapiens (Human), UniProt P06730)
Experiment: Fluorescence polarization competition assay for eIF4E binding potency
How it was run: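 IC50 derived from fluorescence polarization over an 8-point, 3-fold compound series after 30 min room-temperature equilibration in the dark. Mix: eIF4E 75 nM pre-bound 5 min to 20 nM EDA-m^7GDP-ATTO-550; buffer 20 mM Tris pH 7.5, 100 mM NaCl, 1 mM DTT, 0.02% Tween-20; DMSO 1%.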

[1] = fluorescence polarization competition, 75 nM recombinant eIF4E, 20 nM EDA-m7GDP-ATTO-550, IC50 class, read-out: elF4E FP
[2] = inhibition of eIF4E/EDA-m7GDP-ATTO-550 binding by 50%, Table 4B calculated values, read-out: IC50

Chain of recombinant eIF4E (P06730 whole entry): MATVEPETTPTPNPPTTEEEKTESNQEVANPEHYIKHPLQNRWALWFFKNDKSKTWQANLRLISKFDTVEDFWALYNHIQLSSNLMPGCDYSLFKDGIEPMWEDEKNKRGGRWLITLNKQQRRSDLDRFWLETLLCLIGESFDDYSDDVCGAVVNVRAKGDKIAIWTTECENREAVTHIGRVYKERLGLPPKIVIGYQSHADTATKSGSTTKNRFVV

Compound	IC50 [1] [nM]	IC50 [2] [nM]
Cc1cc(-c2cc(Cl)ccc2OCCn2c(C)nc3cc(C(F)(F)F)c(CC4CCN(C)CC4)c(C#N)c3c2=O)c2scc(C(=O)O)c2n1 [compound 713]	< 50	31.4
Cc1cc(-c2cc(Cl)ccc2OCCn2c(C)nc3cc(C(F)(F)F)c(CC4CCNCC4)c(C#N)c3c2=O)c2scc(C(=O)O)c2n1 [compound 714]	< 50	47.2
Cc1cc(-c2cc(Cl)ccc2OCCn2c(C)nc3cc(C)c(CN4CCN(C)CC4)c(C#N)c3c2=O)c2scc(C(=O)O)c2n1 [compound 718]	< 50	20.1
Cc1ccc(-c2cc(Cl)ccc2OCCn2c(C)nc3cc(C(F)(F)F)c(CN4CCN(C)CC4)c(C#N)c3c2=O)c2scc(C(=O)O)c12 [compound 719]	< 50	28.5
Cc1nc2cc(Cl)c3c(cnn3C)c2c(=O)n1CCOc1ccc(Cl)cc1-c1ccnc2c(C(=O)O)csc12 [compound 720]	50 to 1000	199
COc1ccc(-c2cc(Cl)ccc2OCCn2c(C)nc3c(C)ncc(C#N)c3c2=O)c2scc(C(=O)O)c12 [compound 721]	< 50	20.6
Cc1ncc(C#N)c2c(=O)n(CCOc3ccc(Cl)cc3-c3ccc(C)c4c(C(=O)O)csc34)c(C)nc12 [compound 722]	< 50	38
Cc1ncc(C#N)c2c(=O)n(CCOc3ccc(Cl)cc3-c3ccc(Cl)c4c(C(=O)O)csc34)c(C)nc12 [compound 723]	< 50	28.7
Cc1cc(-c2cc(Cl)ccc2OCCn2c(C)nc3cc(CF)c(C)c(C#N)c3c2=O)c2scc(C(=O)O)c2n1 [compound 724]	< 50	37.7
Cc1ccc(-c2cc(Cl)ccc2OCCn2c(C)nc3c(N(C)C)ncc(C#N)c3c2=O)c2scc(C(=O)O)c12 [compound 725]	< 50	38.2
COc1ncc(C#N)c2c(=O)n(CCOc3ccc(Cl)cc3-c3ccc(C)c4c(C(=O)O)csc34)c(C)nc12 [compound 726]	50 to 1000	53
COCc1ncc(C#N)c2c(=O)n(CCOc3ccc(Cl)cc3-c3ccc(C)c4c(C(=O)O)csc34)c(C)nc12 [compound 727]	< 50	29.4
Cc1cc(-c2cc(Cl)ccc2OCCn2c(C)nc3c(C)nc(C(F)F)c(C#N)c3c2=O)c2scc(C(=O)O)c2n1 [compound 728]	< 50	31
Cc1ccc(-c2cc(Cl)ccc2OCCn2c(C)nc3c(C#N)nc(-c4cccnc4)c(C)c3c2=O)c2scc(C(=O)O)c12 [compound 729]	50 to 1000	92.5
Cc1cc(-c2cc(Cl)ccc2OCCn2c(C)nc3c(C)nc(C(F)(F)F)c(C#N)c3c2=O)c2scc(C(=O)O)c2n1 [compound 730]	50 to 1000	51
Cc1cc(-c2cc(Cl)ccc2OCCn2c(C)nc3c(C)ncc(C#N)c3c2=O)c2scc(C(=O)NS(C)(=O)=O)c2n1 [compound 731]	< 50	5.97
Cc1cc(-c2cc(Cl)ccc2OCCn2c(C)nc3c(C)ncc(C#N)c3c2=O)c2scc(C(O)(O)C(F)(F)F)c2n1 [compound 732]	50 to 1000	874
Cc1cc(-c2cc(Cl)ccc2OCCn2c(C)nc3c(C)ncc(C#N)c3c2=O)c2scc(C(O)C(F)(F)F)c2n1 (stereo not drawn) [compound 733]	> 1000	1730
Cc1cc(-c2cc(Cl)ccc2OCCn2c(C)nc3cc(C(F)(F)F)c(-c4cccnc4C)c(C#N)c3c2=O)c2scc(C(=O)O)c2n1 [compound 735]	50 to 1000	58
Cc1cc(-c2cc(Cl)ccc2OCCn2c(C)nc3cc(C(F)(F)F)c(-c4cnccc4C)c(C#N)c3c2=O)c2scc(C(=O)O)c2n1 [compound 736]	< 50	17
Cc1cc(-c2cc(Cl)ccc2OCCn2c(C)nc3c(C)nc(-c4ccccc4)c(C#N)c3c2=O)c2scc(C(=O)O)c2n1 [compound 737]	< 50	12.3
Cc1cc(-c2cc(Cl)ccc2OCCn2c(C)nc3cc(C(F)(F)F)c(CN4CCN(C(C)(C)C)CC4)c(C#N)c3c2=O)c2scc(C(=O)O)c2n1 [compound 738]	< 50	19.3
Cc1cc(-c2cc(Cl)ccc2OCCn2c(C)nc3cc(C(F)(F)F)c(CN4CCN(CC(F)F)CC4)c(C#N)c3c2=O)c2scc(C(=O)O)c2n1 [compound 739]	< 50	30.8
Cc1cc(-c2cc(Cl)ccc2OCCn2c(C)nc3cc(C(F)(F)F)c(CN4CC5CCC(C4)N5C)c(C#N)c3c2=O)c2scc(C(=O)O)c2n1 [compound 740]	< 50	39.2
Cc1cc(-c2cc(Cl)ccc2OCCn2c(C)nc3cc(Cl)c(N4CCN(C)CC4)c(C#N)c3c2=O)c2sc(C)c(C(=O)O)c2n1 [compound 741]	< 50	15.2
Cc1cc(-c2cc(Cl)ccc2OCCn2c(C)nc3c(C)nc(C4CC4)c(C#N)c3c2=O)c2scc(C(=O)O)c2n1 [compound 742]	< 50	32.5

Compound	IC50 [1] [nM]	IC50 [2] [nM]
Cc1ccc(-c2cc(Cl)ccc2OCCn2c(C)nc3c(C#N)nc(-c4ccccn4)c(C)c3c2=O)c2scc(C(=O)O)c12 [compound 743]	50 to 1000	188
CCc1cc(-c2cc(Cl)ccc2OCCn2c(C)nc3cc(C(F)(F)F)c(-c4ccccn4)c(C#N)c3c2=O)c2scc(C(=O)O)c2n1 [compound 747]	< 50	18.9
Cc1cc(-c2cc(Cl)ccc2OCCn2c(C)nc3cc4c(c(C#N)c3c2=O)CCC4)c2scc(C(=O)O)c2n1 [compound 748]	< 50	16.3
Cc1cc(-c2cc(Cl)ccc2OCCn2c(C)nc3c(C)ncc(C#N)c3c2=O)c2scc(C(O)(C(F)(F)F)C(F)(F)F)c2n1 [compound 749]	> 1000	> 100000
Cc1cc(-c2cc(Cl)ccc2OCCn2c(C)nc3cc(C(F)(F)F)c(-c4ncccc4F)c(C#N)c3c2=O)c2scc(C(=O)O)c2n1 [compound 751]	50 to 1000	69.8
Cc1cc(-c2cc(Cl)ccc2OCCn2c(C)nc3cc(Cl)c(N4CCC4)c(C#N)c3c2=O)c2scc(C(=O)O)c2n1 [compound 752]	< 50	27.6
Cc1c(C(F)(F)F)cc2nc(C)n(CCOc3ccc(Cl)cc3-c3cn(C)c(=O)c4c(C(=O)O)csc34)c(=O)c2c1C#N [compound 753]	< 50	13.8
Cc1c(C(F)(F)F)cc2nc(C)n(CC#Cc3ccc(Cl)cc3-c3cn(C)c(=O)c4c(C(=O)O)csc34)c(=O)c2c1C#N [compound 754]	< 50	17.2
Cc1nc2cnc(C3CC3)c(C#N)c2c(=O)n1CCOc1ccc(Cl)cc1-n1cnc2c(C(=O)O)cccc21 [compound 756]	< 50	43.2
CSc1c(-c2cc(Cl)ccc2OCCn2c(C)nc3cnc(C4CC4)c(C#N)c3c2=O)ccnc1C(=O)O [compound 757]	50 to 1000	137
Cc1cc(-c2cc(Cl)ccc2OCCn2c(C)nc3cc(Cl)c(-c4cccc(C(F)F)n4)c(C#N)c3c2=O)c2scc(C(=O)O)c2n1 [compound 758]	< 50	13.1
Cc1cc(-c2cc(Cl)ccc2OCCn2c(C)nc3cc(-c4cccnc4)c(C)c(C#N)c3c2=O)c2scc(C(=O)O)c2n1 [compound 759]	50 to 1000	52.9
Cc1cc(-c2cc(Cl)ccc2OCCn2c(C)nc3nc(C(F)(F)F)c(C)nc3c2=O)c2scc(C(=O)O)c2n1 [compound 760]	< 50	6.44
Cc1ccc(-c2cc(Cl)ccc2OCCn2c(C)nc3cnc(-c4ccncc4)c(C#N)c3c2=O)c2scc(C(=O)O)c12 [compound 762]	< 50	33.7
Cc1cc(-c2ncc3nc(C)n(CCOc4ccc(Cl)cc4-c4ccc(C)c5c(C(=O)O)csc45)c(=O)c3c2C#N)ccn1 [compound 763]	< 50	5.19
Cc1cc(-c2cc(Cl)ccc2OCCn2c(C)nc3cc(C(F)(F)F)c(-c4ncccn4)nc3c2=O)c2scc(C(=O)O)c2n1 [compound 765]	< 50	9.19
Cc1cc(-c2cc(Cl)ccc2OCCn2c(C)nc3cc(C(F)(F)F)c(-c4ccncn4)nc3c2=O)c2scc(C(=O)O)c2n1 [compound 767]	< 50	7.51
Cc1cc(-c2cc(Cl)ccc2OCCn2c(C)nc3cc(C(F)(F)F)c(-c4cncnc4)nc3c2=O)c2scc(C(=O)O)c2n1 [compound 768]	< 50	22.4
Cc1cc(-c2cc(Cl)ccc2OCCn2c(C)nc3cc(C(F)(F)F)c(-c4ccnc(C)n4)nc3c2=O)c2scc(C(=O)O)c2n1 [compound 769]	< 50	23.9
Cc1nc2cnc(-c3ccncc3)c(C#N)c2c(=O)n1CC#Cc1ccc(Cl)cc1-c1ccnc2c(C(=O)O)csc12 [compound 770]	< 50	14
Cc1cc(-c2cc(Cl)ccc2OCCn2c(C)nc3cnc(C4CC4)c(C#N)c3c2=O)c2scc(C(=O)O)c2c1C [compound 771]	< 50	12.8
COc1sc2c(-c3cc(Cl)ccc3OCCn3c(C)nc4cnc(C5CC5)c(C#N)c4c3=O)ccnc2c1C(=O)O [compound 772]	< 50	14.1
Cc1nc2cnc(C3CC3)c(C#N)c2c(=O)n1CCOc1ccc(Cl)cc1-c1ccc(Cl)c2c(C(=O)O)csc12 [compound 773]	< 50	10.2
CCc1ccc(-c2c(C(F)(F)F)cc3nc(C)n(CCOc4ccc(Cl)cc4-c4cc(C)nc5c(C(=O)O)csc45)c(=O)c3c2C#N)cn1 [compound 774]	< 50	8.29
Cc1cncc(-c2c(C(F)(F)F)cc3nc(C)n(CCOc4ccc(Cl)cc4-c4cc(C)nc5c(C(=O)O)csc45)c(=O)c3c2C#N)c1 [compound 775]	< 50	48.3
